# Assay results: patent US20260262641A1 (priority 2023, published 2026)
# Experiments:
# [1] = test system: redlegged earth mite (H. destructor; RLEM); experiment: whole plant or invertebrate; conditions: for LC50: read-out: LC50 (95% CI)
# Method: On the 14th of May 2022, H. destructor were collected from capeweed (Arctotheca calendula) in South Morang, Victoria (−37.625, 145.110), a site with no known history of insecticide application. Mites were collected via suction using a Stihl SH55 blower vacuum, placed in plastic containers with paper towel and vegetation, and transported back to the laboratory, where they were stored at 4° C. until testing.
# Serial dilutions were prepared for each insecticide (Table 1), with the addition of a non-ionic surfactant (Tween 20) at 0.01% to aid the spread of the insecticide and ensure even coating. […] Nine concentrations of pyridaben ranging from the proposed field rate of 1480 mL diluted in 100 L of water (1998 mg a.i./L) to 1×10^−5 were serially diluted and tested along with a water control. Eight concentrations of omethoate, ranging from 10 times the field rate of 100 mL diluted in 100 L of water (290 mg a.i./L) to 1×10^−5, were tested along with a water control. Seven concentrations of bifenthrin, ranging from 10 times the field rate of 40 mL diluted in 100 L of water (100 mg a.i./L) to 1×10^−5, were tested along with a water control. For each insecticide concentration tested, approximately 10 mL of solution was poured into a 15 mL plastic vial and swirled to ensure a complete coating, with excess liquid removed. Six vials were coated per concentration and were left to dry overnight. Control vials were treated in the same way, except water (with the addition of 0.01% Tween) was used.
# (§1) Approximately eight individual H. destructor were then placed into each vial along with 2-3 leaves of common vetch (Vicia sativa), which provided food and humidity. Vials were then sealed with a screw lid and placed in a controlled temperature cabinet at 18° C. After 24-hours exposure, mites were scored as alive (moving freely), incapacitated (inhibited movement), or dead (no movement over a 5 second period).
# Dose-response curves were generated by plotting percentage mortality against log concentration. […] Logistic regression is well suited for the analysis of binary response data (e.g., dead/alive). All analyses were conducted using R version 3.3.1 (R Development Core Team 2022).
# [2] = test system: insecticide-resistant population of redlegged earth mite (H. destructor; RLEM); experiment: whole plant or invertebrate; conditions: for LC50: read-out: LC50 (95% CI); for difference between insecticide-susceptible and resistant populations in response (in words): P < 0.05 level
# Method: (§2) The insecticide-susceptible H. destructor population tested in this bioassay was collected from burr medic (Medicago polymorpha) and barley grass (Hordeum leporinum) in Moulamein, NSW (−35.102, 144.026), a site with no known history of insecticide application. […] Mites were collected via suction using a Stihl SH55 blower vacuum, placed in plastic containers with paper towel and vegetation, and transported back to the laboratory, where they were stored at 4° C. until testing.
# (§3) Serial dilutions were prepared for each insecticide (Table 9), with the addition of a non-ionic surfactant (Tween 20) at 0.01% to aid the spread of the insecticide and ensure even coating. […] Nine concentrations of bifenthrin were tested, ranging from 1×10^−5 to 10 times the field rate of 40 mL diluted in 100 L of water (100 mg a.i./L). Seven concentrations of omethoate were tested, ranging from 1×10^−5 to 10 times the field rate of 100 mL in 100 L of water (290 mg a.i./L).
# as §1, with “Six vials were coated per concentration and were left to dry overnight. Control vials were treated in the same way, except water (with the addition of 0.01% Tween) was used. The next day,” for “Approximately”
# (§4) Dose-response curves were generated by plotting percentage mortality against log concentration. A series of logistic models were used to quantify the sensitivity of H. destructor to each chemical and to test whether any differences in sensitivity were present between the two populations. Logistic regression is well suited for the analysis of binary response data (e.g., dead/alive). Each model included chemical concentration and H. destructor population as fixed-effect predictors, which allowed testing for whether populations had average differences in mortality (i.e., model intercept) via F tests. It was then determined if populations had differences in mortality that were dependent on chemical concentration (i.e., differences in regression slopes) by comparing the inclusion of a population×concentration predictor (i.e., allowing slopes to vary between populations). […] The resulting LC50 values were used to quantify the level of insecticide resistance (resistance ratios) relative to the known insecticide-susceptible population. All analyses were conducted using R version 4.3.1 (R Development Core Team 2023).
# [3] = test system: insecticide-susceptible population of redlegged earth mite (H. destructor; RLEM); experiment: whole plant or invertebrate; conditions: Halotydeus destructor, 24 h; for LC50: read-out: LC50 (95% CI)
# Method: as §2, §3
# as §1, with “Six vials were coated per concentration and were left to dry overnight. Control vials were treated in the same way, except water (with the addition of 0.01% Tween) was used. The next day,” for “Approximately”
# as §4
# [4] = test system: couch mite (Aceria cynodoniensis); experiment: Field trial in Santa Ana couch turfgrass, control of couch mite (Example 3); format: in vivo; conditions: for Biomass and vigor (0-10), 42 DAA2 / Biomass and vigor (0-10), Pre-spray: 0 to 10 rating scale; for Biomass and vigor (0-10), 42 DAA2 / NDVI, 42 DAA2 / % Incidence mite damage, 42 DAA2: product rate mL/ha: Prophesy 500, Thumper 2000 (+ BS 1000 0.25% v/v); for Biomass and vigor (0-10), 42 DAA2 / NDVI, 42 DAA2: Fenpyroximate 50 SC 4000; for NDVI, 42 DAA2 / NDVI, Pre-spray: Greenseeker; for % Incidence mite damage, 42 DAA2: 42 days after second application, Fenpyroximate 50 SC 4000 (200 g ai/ha); for Biomass and vigor (0-10), Pre-spray / NDVI, Pre-spray / % Incidence mite damage, Pre-spray: Pre-spray (baseline); for % Incidence mite damage, Pre-spray: witches' broom
# Method: A field trial was conducted in Santa Ana couch turfgrass, to evaluate fenpyroximate for control of couch mite (Aceria cynodoniensis). The trial was located at Terrey Hills Golf and Country Club, New South Wales (−33.668, 151.217). […] All treatments were applied using a hand boom fitted with XR11004 nozzles and in a spray volume of 430 L/ha.
# The incidence of couch mite damage, to the terminal growth point (known as witches' broom) was assessed 42 days after the second application. Turf biomass and vigor were assessed at the same timing on a 0 to 10 rating scale, along with NDVI using a Greenseeker.
# (§5) All data was statistically analyzed using analysis of variance and Fisher's protected least significant different test (Fishers LSD). The level of significance for all tests was P<0.05.
# [5] = test system: redlegged earth mite (H. destructor; RLEM); experiment: Field trial in canola, pre- or post-emergent control of RLEM (Example 5); format: in vivo, Halotydeus destructor; conditions: application timing B (early post-emergent, 1 to 2 leaf canola)
# Method: A field trial was conducted in canola cv. Garrison, to evaluate fenpyroximate for control of redlegged earth mite (H. destructor; RLEM) as a pre- or post-emergent application. The trial was located at Beverley, Western Australia (−32.2248085, 117.0268493). The canola was sown on 13th June 2023. […] All treatments were applied using a hand boom fitted with flat fan nozzles in a spray volume of 100 L/ha.
# The density of RLEM was assessed 33 days after the second application timing by counting the number of mites per plant.
# as §5
# [6] = Halotydeus destructor, 24 h, read-out: % RLEM mortality
# [7] = Halotydeus destructor, 24 h, read-out: % RLEM mortality, Resistant
# [8] = read-out: % RLEM mortality, Susceptible
molecule,measurement,setting,value
Cc1c(COC(=O)[C@@H]2[C@H](/C=C(\Cl)C(F)(F)F)C2(C)C)cccc1-c1ccccc1 (racemic) [Bifenthrin],mortality at 0.001 µg/mL,[1]; [6],0%
same,mortality at 0.01 µg/mL,[1]; [6],0%
same,mortality at 0.1 µg/mL,[1]; [6],64.9%
same,mortality at 0.3 µg/mL,[1]; [6],98.7%
same,mortality at 1 µg/mL,[1]; [6],100%
same,mortality at 10 µg/mL,[1]; [6],100%
same,mortality at 100 µg/mL,[1]; [6],100%
same,LC50,"[1]; Halotydeus destructor, 24 h",0.085 µg/mL
same,Resistance ratio,[2],265.09
same,mortality at 0.001 µg/mL,[2]; [7],4.4%
same,mortality at 0.01 µg/mL,[2]; [7],9.3%
same,mortality at 0.03 µg/mL,[2]; [7],5.8%
same,mortality at 0.1 µg/mL,[2]; [7],22.3%
same,mortality at 0.3 µg/mL,[2]; [7],44.6%
same,mortality at 1 µg/mL,[2]; [7],48.9%
same,mortality at 10 µg/mL,[2]; [7],70.9%
same,mortality at 100 µg/mL,[2]; [7],59%
same,mortality at 1000 µg/mL,[2]; [7],53.5%
same,LC50,"[2]; Halotydeus destructor, 24 h",14.1 µg/mL
same,difference between insecticide-susceptible and resistant populations in response (in words),[2],significant difference
same,mortality at 0.001 µg/mL,[3]; [8],7%
same,mortality at 0.01 µg/mL,[3]; [8],4.7%
same,mortality at 0.03 µg/mL,[3]; [8],17.4%
same,mortality at 0.1 µg/mL,[3]; [8],74.3%
same,mortality at 0.3 µg/mL,[3]; [8],98.1%
same,mortality at 1 µg/mL,[3]; [8],100%
same,mortality at 10 µg/mL,[3]; [8],100%
same,mortality at 100 µg/mL,[3]; [8],100%
same,mortality at 1000 µg/mL,[3]; [8],100%
same,LC50,[3],0.053 µg/mL
"Clc1ccccc1-c1nnc(-c2ccccc2Cl)nn1 [Prophesy, Clofentezine]","Biomass and vigor (0-10), 42 DAA2",[4],4.9
same,"NDVI, 42 DAA2",[4],0.64
same,"% Incidence mite damage, 42 DAA2",[4],52.0%
same,"Biomass and vigor (0-10), Pre-spray",[4],4.0 a
same,"NDVI, Pre-spray",[4],0.53 a
same,"% Incidence mite damage, Pre-spray",[4],94.0 a %
same,turf biomass and vigor and NDVI (in words),"[4]; versus untreated, P<0.05",also improved
CNC(=O)CSP(=O)(OC)OC [Omethoate],mortality at 0.003 µg/mL,[1]; [6],0%
same,mortality at 0.03 µg/mL,[1]; [6],2.8%
same,mortality at 0.3 µg/mL,[1]; [6],11.7%
same,mortality at 0.9 µg/mL,[1]; [6],55.3%
same,mortality at 2.9 µg/mL,[1]; [6],98.1%
same,mortality at 29 µg/mL,[1]; [6],100%
same,mortality at 290 µg/mL,[1]; [6],100%
same,mortality at 2900 µg/mL,[1]; [6],100%
same,LC50,"[1]; Halotydeus destructor, 24 h",0.681 µg/mL
same,mortality at 0.0029 µg/mL,[2]; [7],16.1%
same,mortality at 0.029 µg/mL,[2]; [7],18.9%
same,mortality at 0.29 µg/mL,[2]; [7],17.2%
same,mortality at 2.9 µg/mL,[2]; [7],47.5%
same,mortality at 29 µg/mL,[2]; [7],100%
same,mortality at 290 µg/mL,[2]; [7],100%
same,mortality at 2900 µg/mL,[2]; [7],100%
same,LC50,"[2]; Halotydeus destructor, 24 h",0.935 µg/mL
same,difference between insecticide-susceptible and resistant populations in response (in words),[2],no statistically significant difference
same,mortality at 0.0029 µg/mL,[3]; [8],7.6%
same,mortality at 0.029 µg/mL,[3]; [8],10.1%
same,mortality at 0.29 µg/mL,[3]; [8],32.1%
same,mortality at 2.9 µg/mL,[3]; [8],95.8%
same,mortality at 29 µg/mL,[3]; [8],100%
same,mortality at 290 µg/mL,[3]; [8],100%
same,mortality at 2900 µg/mL,[3]; [8],100%
same,LC50,[3],0.348 µg/mL
same,% Control (33 DAA2),[5]; product rate 100 mL/ha,74%
Abamectin [Thumper],"Biomass and vigor (0-10), 42 DAA2",[4],4.4
same,"NDVI, 42 DAA2",[4],0.58
same,"% Incidence mite damage, 42 DAA2",[4],57.0%
same,"Biomass and vigor (0-10), Pre-spray",[4],3.9 a
same,"NDVI, Pre-spray",[4],0.52 a
same,"% Incidence mite damage, Pre-spray",[4],95.3 a %
CC(C)(C)c1ccc(CSc2cnn(C(C)(C)C)c(=O)c2Cl)cc1 [Pyridaben],mortality even at the highest rates,"[1]; 24 hours exposure, highest rates tested",less than 50%
same,mortality at 0.02 µg/mL,[1]; [6],0%
same,mortality at 0.2 µg/mL,[1]; [6],0%
same,mortality at 2 µg/mL,[1]; [6],0%
same,mortality at 20 µg/mL,[1]; [6],0%
same,mortality at 60 µg/mL,[1]; [6],0%
same,mortality at 200 µg/mL,[1]; [6],9%
same,mortality at 599 µg/mL,[1]; [6],23.4%
same,mortality at 999 µg/mL,[1]; [6],45.5%
same,mortality at 1998 µg/mL,[1]; [6],27.5%
same,efficacy against RLEM (in words),"[1]; laboratory bioassay, 24 hours exposure",not efficacious
same,highest mortality observed,[1]; range of concentrations tested 0.01998-1998 mg a.i./L,45%
CC(C)c1cc(Oc2ccccc2)cc(C(C)C)c1NC(=S)NC(C)(C)C [Diafenthiuron],mortality at 0.03 µg/mL,[2]; [7],3.9%
same,mortality at 0.3 µg/mL,[2]; [7],10.6%
same,mortality at 3 µg/mL,[2]; [7],13.2%
same,mortality at 30 µg/mL,[2]; [7],15.7%
same,mortality at 300 µg/mL,[2]; [7],39.5%
same,mortality at 3000 µg/mL,[2]; [7],75.5%
same,mortality at 30000 µg/mL,[2]; [7],100%
same,mortality at 90000 µg/mL,[2]; [7],100%
same,difference between insecticide-susceptible and resistant populations in response (in words),[2],significant population differences
same,mortality at 0.03 µg/mL,[3]; [8],13.9%
same,mortality at 0.3 µg/mL,[3]; [8],15.6%
same,mortality at 3 µg/mL,[3]; [8],13%
same,mortality at 30 µg/mL,[3]; [8],21.5%
same,mortality at 300 µg/mL,[3]; [8],64.1%
same,mortality at 3000 µg/mL,[3]; [8],100%
same,mortality at 30000 µg/mL,[3]; [8],100%
same,mortality at 90000 µg/mL,[3]; [8],100%
same,% Control (33 DAA2),[5]; product rate 400 mL/ha,54%
